# pIC50: −log10 of the molar value. Where a name gives a salt, the structure may show the parent alone.
# Biological target: T1, S1P2 (Homo sapiens, UniProt O95136)
# T1 construct: Flag; expressed in transfected cells; host or cells: Chinese hamster ovary (CHO) cells, doxycycline-inducible (CHO-S1P2-FL / CHO-S1PR2 FL)
# Experiment: GLISA RhoA activation - antagonist assay
# Format: cell-based
# Details: CHO-S1P2-FL cells; for inhibition at 1 µM: 1 μM compound; for pIC50: 1 hour compound incubation, then for 5 min
# Protocol: GLISA RhoA Activation—Antagonist Assay
# GLISA assays were performed using RhoA (BK124) activation kit purchased from Cytoskeleton Inc., Denver, CO Doxycycline-inducible Flag-tag S1P2 expressing Chinese hamster ovary (CHO) cells (CHO-S1P2-FL) were seeded in a 6-well plate, 1.5×10^5 cells per well. Cells were stimulated with […] of Doxycycline to induce S1P2 expression in serum free IMDM media with 0.1% BSA/PBS. Following day, cells were stimulated with the compounds described herein (1 nM-10 μM) or 1 μM JTE-013 for 1 hour at 37° C. Following compound incubation, cells were washed with PBS×3 and induced with 100 nM […] for 5 min. […] Protein concentration was examined using GLISA—Precision Red Advanced Protein assay reagent as described in assay manual. Lysates were immobilized on GTP-bound capture plate and GLISA assay was performed based on manufacture recommendations as reported previously.
# T1 sequence (O95136 whole entry, species assumed): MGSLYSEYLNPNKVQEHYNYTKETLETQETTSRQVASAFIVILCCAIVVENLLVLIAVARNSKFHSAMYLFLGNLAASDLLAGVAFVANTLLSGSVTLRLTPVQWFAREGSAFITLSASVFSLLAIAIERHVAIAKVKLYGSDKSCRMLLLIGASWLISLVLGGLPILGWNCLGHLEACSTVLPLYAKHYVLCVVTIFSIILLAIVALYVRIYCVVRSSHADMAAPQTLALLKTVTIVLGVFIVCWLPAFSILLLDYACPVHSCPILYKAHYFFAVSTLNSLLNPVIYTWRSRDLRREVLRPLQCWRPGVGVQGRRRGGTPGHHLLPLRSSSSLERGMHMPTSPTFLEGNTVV
inhibition at 1 µM [%],pIC50,SMILES
57,5.83,"Cc1cc(C(=O)Cn2cc(I)ccc2=O)c(C)n1Cc1ccccc1 [Compound 2, 1-(2-(1-benzyl-2,5-dimethyl-1H-pyrrol-3-yl)-2-oxoethyl)-5-iodopyridin-2(1H)-one]"
86,7.59,"Cc1cc(C(=O)C(C)n2cc(Br)ccc2=O)c(C)n1Cc1ccccc1 (centres unmarked) [Compound 4, 1-(1-(1-benzyl-2,5-dimethyl-1H-pyrrol-3-yl)-1-oxopropan-2-yl)-5-bromopyridin-2(1H)-one]"
29,,"Cc1cc(C(=O)C(C)n2cc(Br)ccc2=O)c(C)n1Cc1ccc(S(C)(=O)=O)cc1 (centres unmarked) [Compound 13, 5-bromo-1-(1-(2,5-dimethyl-1-(4-(methylsulfonyl)benzyl)-1H-pyrrol-3-yl)-1-oxopropan-2-yl)pyridin-2(1H)-one]"
70,,"Cc1cc(C(=O)C(C)n2cc(Br)ccc2=O)c(C)n1Cc1cccc(C#N)c1 (centres unmarked) [Compound 15, 3-((3-(2-(5-bromo-2-oxopyridin-1(2H)-yl)propanoyl)-2,5-dimethyl-1H-pyrrol-1-yl)methyl)benzonitrile]"
39,,"Cc1cc(C(=O)C(C)n2cc(Br)ccc2=O)c(C)n1Cc1ccc(C#N)cc1 (centres unmarked) [Compound 16, 4-((3-(2-(5-bromo-2-oxopyridin-1(2H)-yl)propanoyl)-2,5-dimethyl-1H-pyrrol-1-yl)methyl)benzonitrile]"
76,,"Cc1cc(C(=O)C(C)n2cc(Br)ccc2=O)c(C)n1Cc1ccc(F)cc1 (centres unmarked) [Compound 18, 5-bromo-1-(1-(1-(4-fluorobenzyl)-2,5-dimethyl-1H-pyrrol-3-yl)-1-oxopropan-2-yl)pyridin-2(1H)-one]"
44,,"Cc1cc(C(=O)C(C)n2cc(Br)ccc2=O)c(C)n1Cc1ccccc1F (centres unmarked) [Compound 19, 5-bromo-1-(1-(1-(2-fluorobenzyl)-2,5-dimethyl-1H-pyrrol-3-yl)-1-oxopropan-2-yl)pyridin-2(1H)-one]"
46,,"Cc1cc(C(=O)C(C)n2cc(Br)ccc2=O)c(C)n1Cc1ccc(F)c(F)c1 (centres unmarked) [Compound 20, 5-bromo-1-(1-(1-(3,4-difluorobenzyl)-2,5-dimethyl-1H-pyrrol-3-yl)-1-oxopropan-2-yl)pyridn-2(1H)-one]"
42,,"Cc1cc(C(=O)C(C)n2cc(Br)ccc2=O)c(C)n1Cc1cccc(C(F)F)c1 (centres unmarked) [Compound 21, 5-bromo-1-(1-(1-(3-(difluoromethyl)benzyl)-2,5-dimethyl-1H-pyrrol-3-yl)-1-oxopropan-2-yl)pyridin-2(1H)-one]"
73,6.10,"Cc1cc(C(=O)C(C)n2cc(Br)ccc2=O)c(C)n1Cc1cccc(Cl)c1 (centres unmarked) [Compound 22, 5-bromo-1-(1-(1-(3-chlorobenzyl)-2,5-dimethyl-1H-pyrrol-3-yl)-1-oxopropan-2-yl)pyridin-2(1H)-one]"
69,6.53,"Cc1cc(C(=O)C(C)n2cc(Br)ccc2=O)c(C)n1Cc1cccc(C(=O)O)c1 (centres unmarked) [Compound 23, 3-((3-(2-(5-bromo-2-oxopyridin-1(2H)-yl)propanoyl)-2,5-dimethyl-1H-pyrrol-1-yl)metnyl)benzoic add]"
73,,"Cc1cc(C(=O)C(C)n2cc(Br)ccc2=O)c(C)n1Cc1cccnc1 (centres unmarked) [Compound 24, 5-bromo-1-(1-(2,5-dimethyl-1-(pyridin-3-ylmethyl)-1H-pyrrol-3-yl)-1-oxopropan-2-yl)pyridin-2(1H)-one]"
39,,"Cc1cc(C(=O)C(C)n2cc(Br)ccc2=O)c(C)n1Cc1ccncc1 (centres unmarked) [Compound 25, 5-bromo-1-(1-(2,5-dimethyl-1-(pyridin-4-ylmethyl)-1H-pyrrol-3-yl)-1-oxopropan-2-yl)pyridin-2(1H)-one]"
55,6.71,"CC#Cc1ccc(=O)n(CC(=O)c2cc(C)n(Cc3ccccc3)c2C)c1 [Compound 26, 1-(2-(1-benzyl-2,5-dimethyl-1H-pyrrol-3-yl)-2-oxoethyl)-5-(prop-1-yn-1-yl)pyridin-2(1H)-one]"
58,,"Cc1cc(C(=O)Cn2cc(Br)ccc2=O)c(C)n1Cc1ccc(F)cc1 [Compound 28, 5-bromo-1-(2-(1-(4-fluorobenzyl)-2,5-dimethyl-1H-pyrrol-3-yl)-2-oxoethyl)pyridin-2(1H)-one]"
64,6.23,"Cc1nc(C(=O)Cn2cc(Br)ccc2=O)c(C)n1Cc1ccc(F)cc1 [Compound 30, 5-bromo-1-(2-(1-(4-fluorobenzyl)-2,5-dimethyl-1H-imidazol-4-yl)-2-oxoethyl)pyridin-2(1H)-one]"
69,6.60,"C#Cc1ccc(=O)n(CC(=O)c2cc(C)n(Cc3ccc(F)cc3)n2)c1 [Compound 31, 5-ethynyl-1-(2-(1-(4-fluorobenzyl)-5-methyl-1H-pyrazol-3-yl)-2-oxoethyl)pyridin-2(1H)-one]"
,< 5.00,"Cc1cc(C(=O)Cn2c(C)c(C#N)ccc2=O)c(C)n1Cc1ccccc1 [Example 44, 1-(2-(1-Benzyl-2,5-dimethyl-1H-pyrrol-3-yl)-2-oxoethyl)-2-methyl-6-oxo-1,6-dihydropyridine-3-carbonitrile]"
,< 5.00,"Cc1cc(C(=O)Cn2cc(Cl)ccc2=O)c(C)n1Cc1ccccc1 [Example 45, 1-(2-(1-Benzyl-2,5-dimethyl-1H-pyrrol-3-yl)-2-oxoethyl)-5-chloropyridin-2(1H)-one]"
,< 5.00,"Cc1cc(C(=O)Cn2cc(C(=O)O)ccc2=O)c(C)n1Cc1ccccc1 [Example 46, 1-(2-(1-Benzyl-2,5-dimethyl-1H-pyrrol-3-yl)-2-oxoethyl)-6-oxo-1,6-dihydropyridine-3-carboxylic Acid]"

# Second part, the compound before the results:
SMILES,inhibition at 1 µM [%],pIC50
"Cc1nc(Cn2c(C)cc(C(=O)C(C)n3cc(Br)ccc3=O)c2C)no1 (centres unmarked) [Compound 5, 5-bromo-1-(1-(2,5-dimethyl-1-((5-methyl-1,2,4-oxadiazol-3-yl)methyl)-1H-pyrrol-3-yl)-1-oxopropan-2-yl)pyridin-2(1H)-one]",48,
"Cc1noc(Cn2c(C)cc(C(=O)C(C)n3cc(Br)ccc3=O)c2C)n1 (centres unmarked) [Compound 6, 5-bromo-1-(1-(2,5-dimethyl-1-((3-methyl-1,2,4-oxadiazol-5-yl)methyl)-1H-pyrrol-3-yl)-1-oxopropan-2-yl)pyridin-2(1H)-one]",29,
"Cc1cc(C(=O)C(C)n2cc(Br)ccc2=O)c(C)n1Cc1ncccn1 (centres unmarked) [Compound 7, 5-bromo-1-(1-(2,5-dimethyl-1-(pyrimidin-2-ylmethyl)-1H-pyrrol-3-yl)-1-oxopropan-2-yl)pyridin-2(1H)-one]",58,
"Cc1cc(C(=O)C(C)n2cc(Br)ccc2=O)c(C)n1Cc1cnn(C)c1 (centres unmarked) [Compound 8, 5-bromo-1-(1-(2,5-dimethyl-1-((1-methyl-1H-pyrazol-4-yl)methyl)-1H-pyrrol-3-yl)-1-oxopropan-2-yl)pyridin-2(1H)-one]",20,
"Cc1cc(Cn2c(C)cc(C(=O)C(C)n3cc(Br)ccc3=O)c2C)no1 (centres unmarked) [Compound 9, 5-bromo-1-(1-(2,5-dimethyl-1-((5-methylisoxazol-3-yl)methyl)-1H-pyrrol-3-yl)-1-oxopropan-2-yl)pyridin-2(1H)-one]",32,
"Cc1cc(C(=O)C(C)n2cc(Br)ccc2=O)c(C)n1CC1CCOCC1 (centres unmarked) [Compound 10, 5-bromo-1-(1-(2,5-dimethyl-1-((tetrahydro-2H-pyran-4-yl)methyl)-1H-pyrrol-3-yl)-1-oxopropan-2-yl)pyridin-2(1H)-one]",39,
"Cc1cc(C(=O)C(C)n2cc(Br)ccc2=O)c(C)n1CC1CCCOC1 (centres unmarked) [Compound 11, 5-bromo-1-(1-(2,5-dimethyl-1-((tetrahydro-2H-pyran-3-yl)methyl)-1H-pyrrol-3-yl)-1-oxopropan-2-yl)pyridin-2(1H)-one]",30,
"Cc1cc(C(=O)C(C)n2cc(Br)ccc2=O)c(C)n1Cc1ccn(C)n1 (centres unmarked) [Compound 12, 5-bromo-1-(1-(2,5-dimethyl-1-((1-methyl-1H-pyrazol-3-yl)methyl)-1H-pyrrol-3-yl)-1-oxopropan-2-yl)pyridin-2(1H)-one]",41,
"Cc1cc(C(=O)C(C)n2cc(Br)ccc2=O)c(C)n1Cc1cccc(S(C)(=O)=O)c1 (centres unmarked) [Compound 14, 5-bromo-1-(1-(2,5-dimethyl-1-(3-(methylsulfonyl)benzyl)-1H-1-pyrrol-3-yl)-1-oxopropan-2-yl)pyridin-2(1H)-one]",35,
"Cc1cc(C(=O)C(C)n2cc(Br)ccc2=O)c(C)n1Cc1ccccc1C#N (centres unmarked) [Compound 17, 2-((3-(2-(5-bromo-2-oxopyridin-1(2H)-yl)propanoyl)-2,5-dimethyl-1H-pyrrol-1-yl)methyl)benzonitrile]",63,
"O=c1ccc(Br)cn1Cc1nccc2c1cnn2Cc1ccccc1 [Compound 130, 1-((1-Benzyl-1H-pyrazolo[4,3-c]pyridin-4-y)methyl)-5-bromopyridin-2(1H)-one hydrochloride]",,6.85
"C#Cc1ccc(=O)n(Cc2nccc3c2cnn3Cc2ccccc2)c1 [Compound 131, 1-((1-benzyl-1H-pyrazolo[4,3-c]pyridin-4-yl)methyl)-5-ethynylpyridin-2(1H)one hydrochloride]",,7.24
"Cc1cc(C(=O)Cn2cc(C#N)ccc2=O)c(C)[nH]1 [Example 47, 1-(2-(2,5-Dimethyl-1H-pyrrol-3-yl)-2-oxoethyl)-6-oxo-1,6-dihydropyridine-3-carbonitrile]",,< 5.00
"Cc1cc(C(=O)C(Cc2ccc(-c3ccccc3)cc2)n2cc(C#N)ccc2=O)c(C)[nH]1 (centres unmarked) [Example 48, 1-(3-((1,1′-Biphenyl)-4-yl)-1-(2,5-dimethyl-1H-pyrrol-3-yl)-1-oxopropan-2-yl)-6-oxo-1,6-dihydropyridine-3-carbonitrile]",,< 5.00
